#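 Tested at 5 concentrations; 48 h exposure; 96-well plates; endpoints linearly interpolated, else capped at highest concentration. GI50 marks 50% less growth. TGI is the concentration that stops growth completely.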 Residues, ends and D or L forms follow the SMILES beside them. *: point of attachment. Boc = CC(C)(C)OC(=O)*; OBn = c1ccc(CO*)cc1
# How the values were obtained:
# Experiment in all cases: NCI-60 cell line screen, 48 h
# COLO 205 colon = test system: COLO 205 colon
# SF-295 CNS = test system: SF-295 CNS
# U251 CNS = test system: U251 CNS
# SN12C renal = test system: SN12C renal
# IGROV1 ovarian = test system: IGROV1 ovarian
# 786-0 renal = test system: 786-0 renal
# K-562 leukemia = test system: K-562 leukemia
# NCI-H460 lung = test system: NCI-H460 lung
# UACC-62 melanoma = test system: UACC-62 melanoma
# CAKI-1 renal = test system: CAKI-1 renal
# NCI-H23 lung = test system: NCI-H23 lung
structure (smiles),measurement,setting,value
NC(=O)N/N=C(/Cc1nc2ccc(C(=O)c3ccccc3)cc2[nH]c1=O)C(=O)Nc1ccc(C(F)(F)F)cc1[N+](=O)[O-],TGI,COLO 205 colon,> 100 µM
same,TGI,SF-295 CNS,> 100 µM
same,TGI,U251 CNS,> 100 µM
same,TGI,SN12C renal,> 100 µM
same,TGI,IGROV1 ovarian,> 100 µM
same,TGI,786-0 renal,> 100 µM
same,TGI,K-562 leukemia,> 100 µM
same,TGI,NCI-H460 lung,> 100 µM
same,TGI,UACC-62 melanoma,> 100 µM
same,TGI,CAKI-1 renal,> 100 µM
same,TGI,NCI-H23 lung,> 100 µM
CC(=O)c1cccc(NC(=O)C(=O)C(c2cnc3ccc([N+](=O)[O-])cc3n2)[N+](=O)[O-])c1 (stereo unspecified),TGI,COLO 205 colon,> 100 µM
same,TGI,SF-295 CNS,> 100 µM
same,TGI,U251 CNS,> 100 µM
same,TGI,SN12C renal,> 100 µM
same,TGI,IGROV1 ovarian,> 100 µM
same,TGI,786-0 renal,> 100 µM
same,TGI,K-562 leukemia,> 100 µM
same,TGI,NCI-H460 lung,> 100 µM
same,TGI,UACC-62 melanoma,> 100 µM
same,TGI,CAKI-1 renal,> 100 µM
same,TGI,NCI-H23 lung,> 100 µM
Oc1ccccc1C1=NOC(c2ccc(C(F)(F)F)cc2)C1 (stereo unspecified),TGI,COLO 205 colon,> 50 µM
same,TGI,SF-295 CNS,> 50 µM
same,TGI,U251 CNS,> 50 µM
same,TGI,SN12C renal,> 50 µM
same,TGI,IGROV1 ovarian,> 33.3 µM
same,TGI,786-0 renal,> 50 µM
same,TGI,K-562 leukemia,> 50 µM
same,TGI,NCI-H460 lung,> 50 µM
same,TGI,UACC-62 melanoma,> 50 µM
same,TGI,CAKI-1 renal,> 50 µM
same,TGI,NCI-H23 lung,> 50 µM
CC(C)(C)OC(=O)C1=C2C=C(O)C=CC2(C)N(Cc2ccccc2)C1=N (stereo unspecified),TGI,COLO 205 colon,6.24 µM
same,TGI,SF-295 CNS,28.2 µM
same,TGI,U251 CNS,43.3 µM
same,TGI,SN12C renal,25.5 µM
same,TGI,IGROV1 ovarian,16.6 µM
same,TGI,786-0 renal,12.7 µM
same,TGI,K-562 leukemia,> 32.9 µM
same,TGI,NCI-H460 lung,34.7 µM
same,TGI,UACC-62 melanoma,29 µM
same,TGI,CAKI-1 renal,4.19 µM
same,TGI,NCI-H23 lung,31.2 µM
O=c1[nH]nc(Cn2c3ccc(Br)cc3c3nc4ccccc4nc32)n1C1CCCCC1,TGI,COLO 205 colon,> 100 µM
same,TGI,SF-295 CNS,> 100 µM
same,TGI,U251 CNS,> 100 µM
same,TGI,SN12C renal,> 100 µM
same,TGI,IGROV1 ovarian,> 100 µM
same,TGI,786-0 renal,> 100 µM
same,TGI,K-562 leukemia,> 100 µM
same,TGI,NCI-H460 lung,> 100 µM
same,TGI,UACC-62 melanoma,81.1 µM
same,TGI,CAKI-1 renal,> 100 µM
same,TGI,NCI-H23 lung,40.9 µM
O=c1c2cc(I)ccc2nc(SCc2n[nH]c(=S)o2)n1Cc1ccccc1,TGI,COLO 205 colon,22.8 µM
same,TGI,SF-295 CNS,40 µM
same,TGI,U251 CNS,31.4 µM
same,TGI,SN12C renal,27.6 µM
same,TGI,IGROV1 ovarian,35.3 µM
same,TGI,786-0 renal,30.3 µM
same,TGI,K-562 leukemia,70.8 µM
same,TGI,NCI-H460 lung,39.5 µM
same,TGI,UACC-62 melanoma,25.4 µM
same,TGI,CAKI-1 renal,22.4 µM
same,TGI,NCI-H23 lung,34.2 µM
CC(C)CC(NC(=O)OC(C)(C)C)C(=O)N1CCCC1C(=O)OCc1ccccc1 (stereo not drawn) (Boc-Leu-Pro-OBn; configuration not given here),TGI,COLO 205 colon,> 100 µM
same,TGI,SF-295 CNS,> 100 µM
same,TGI,U251 CNS,> 100 µM
same,TGI,SN12C renal,> 100 µM
same,TGI,IGROV1 ovarian,> 100 µM
same,TGI,786-0 renal,> 100 µM
same,TGI,K-562 leukemia,> 100 µM
same,TGI,UACC-62 melanoma,> 100 µM
same,TGI,CAKI-1 renal,> 100 µM
same,TGI,NCI-H23 lung,> 100 µM
O=C(Nc1cc(Cl)cc(Cl)c1)/C(Cc1nc2ccccc2[nH]c1=O)=N/NC(=O)c1ccncc1,TGI,COLO 205 colon,> 100 µM
same,TGI,SF-295 CNS,> 100 µM
same,TGI,U251 CNS,> 100 µM
same,TGI,IGROV1 ovarian,> 100 µM
same,TGI,786-0 renal,> 100 µM
same,TGI,K-562 leukemia,> 100 µM
same,TGI,NCI-H460 lung,> 100 µM
same,TGI,UACC-62 melanoma,> 100 µM
same,TGI,CAKI-1 renal,> 100 µM
O=C1c2ccccc2CC12Cc1ccccc1C2,TGI,COLO 205 colon,> 100 µM
same,TGI,SF-295 CNS,> 100 µM
same,TGI,U251 CNS,> 100 µM
same,TGI,SN12C renal,> 100 µM
same,TGI,IGROV1 ovarian,> 100 µM
same,TGI,786-0 renal,> 100 µM
same,TGI,K-562 leukemia,> 100 µM
same,TGI,NCI-H460 lung,> 100 µM
same,TGI,UACC-62 melanoma,> 100 µM
same,TGI,CAKI-1 renal,> 100 µM
same,TGI,NCI-H23 lung,> 100 µM
CN(C)c1ccc(-c2ccc(N(C)C)c3n[se]nc23)c2n[se]nc12,TGI,SF-295 CNS,> 100 µM
same,TGI,U251 CNS,> 100 µM
same,TGI,SN12C renal,> 100 µM
same,TGI,IGROV1 ovarian,> 100 µM
same,TGI,786-0 renal,> 100 µM
same,TGI,K-562 leukemia,> 100 µM
same,TGI,NCI-H460 lung,> 100 µM
same,TGI,UACC-62 melanoma,> 100 µM
same,TGI,CAKI-1 renal,> 100 µM
same,TGI,NCI-H23 lung,> 100 µM
N=C(N)c1ccc(-c2ccc(-c3cccs3)s2)s1,GI50,SN12C renal,1.58 µM
same,TGI,SN12C renal,3.3 µM
same,TGI,NCI-H460 lung,0.229 µM
same,GI50,UACC-62 melanoma,1.82 µM
same,TGI,UACC-62 melanoma,3.28 µM
same,GI50,CAKI-1 renal,1.57 µM
same,TGI,CAKI-1 renal,2.95 µM
same,GI50,NCI-H23 lung,1.62 µM
same,TGI,NCI-H23 lung,3.42 µM
O=C(O)C1(Cc2ccc3c(c2)CCC3)Cc2ccccc2C1,TGI,COLO 205 colon,> 100 µM
same,TGI,SF-295 CNS,> 100 µM
same,TGI,U251 CNS,> 100 µM
same,TGI,SN12C renal,> 100 µM
same,TGI,IGROV1 ovarian,> 100 µM
same,TGI,786-0 renal,> 100 µM
same,TGI,K-562 leukemia,> 100 µM
same,TGI,NCI-H460 lung,> 100 µM
same,TGI,UACC-62 melanoma,> 100 µM
same,TGI,NCI-H23 lung,> 100 µM
NCCCCC(=O)c1cccnc1,TGI,SF-295 CNS,> 100 µM
same,TGI,U251 CNS,> 100 µM
same,TGI,IGROV1 ovarian,> 100 µM
same,TGI,786-0 renal,> 100 µM
same,TGI,K-562 leukemia,> 100 µM
same,TGI,NCI-H460 lung,> 100 µM
same,TGI,UACC-62 melanoma,> 100 µM
same,TGI,CAKI-1 renal,> 100 µM
same,TGI,NCI-H23 lung,> 100 µM
COc1ccc(/C=C2/NC(=S)N=C2Cl)cc1,TGI,COLO 205 colon,> 100 µM
same,TGI,SF-295 CNS,> 100 µM
same,TGI,U251 CNS,> 100 µM
same,TGI,SN12C renal,> 100 µM
same,TGI,IGROV1 ovarian,> 100 µM
same,TGI,786-0 renal,> 100 µM
same,TGI,K-562 leukemia,> 100 µM
same,TGI,CAKI-1 renal,> 100 µM
same,TGI,NCI-H23 lung,> 100 µM
CN(C)CCn1c(=O)c2ccc3c4c(nn3CCN(C)C)c3cc([N+](=O)[O-])ccc3n(c1=O)c24,TGI,COLO 205 colon,0.297 µM
same,TGI,SF-295 CNS,1.05 µM
same,TGI,U251 CNS,2.94 µM
same,TGI,SN12C renal,0.429 µM
same,TGI,IGROV1 ovarian,4.5 µM
same,TGI,786-0 renal,0.277 µM
same,TGI,NCI-H460 lung,0.176 µM
same,TGI,UACC-62 melanoma,0.952 µM
same,TGI,CAKI-1 renal,0.275 µM
same,TGI,NCI-H23 lung,0.397 µM
COC(=O)C1=C(C(=O)OC)SC(=C2S[C@@H]3[C@@H]4C[C@H]([C@@H]3S2)[C@H]2C(=O)OC(=O)[C@@H]42)S1,TGI,COLO 205 colon,> 100 µM
same,TGI,SF-295 CNS,> 100 µM
same,TGI,U251 CNS,> 100 µM
same,TGI,SN12C renal,> 100 µM
same,TGI,IGROV1 ovarian,> 100 µM
same,TGI,786-0 renal,> 100 µM
same,TGI,K-562 leukemia,> 100 µM
same,TGI,UACC-62 melanoma,> 100 µM
same,TGI,CAKI-1 renal,> 100 µM
same,TGI,NCI-H23 lung,> 100 µM
CCN(CC)c1ccc2cc(-c3nnc(-c4ccccc4O)o3)c(=O)oc2c1,TGI,COLO 205 colon,33.6 µM
same,TGI,SF-295 CNS,29.7 µM
same,TGI,U251 CNS,21 µM
same,TGI,IGROV1 ovarian,13.9 µM
same,TGI,786-0 renal,21.9 µM
same,TGI,K-562 leukemia,> 100 µM
same,TGI,NCI-H460 lung,27.9 µM
same,TGI,UACC-62 melanoma,23.4 µM
same,TGI,CAKI-1 renal,25.3 µM
same,TGI,NCI-H23 lung,24.8 µM
O=C(NCCN1CCCCC1)c1ccc(I)cc1,TGI,COLO 205 colon,> 100 µM
same,TGI,SF-295 CNS,> 100 µM
same,TGI,U251 CNS,> 100 µM
same,TGI,SN12C renal,> 100 µM
same,TGI,IGROV1 ovarian,> 100 µM
same,TGI,786-0 renal,> 100 µM
same,TGI,K-562 leukemia,> 100 µM
same,TGI,NCI-H460 lung,> 100 µM
same,TGI,CAKI-1 renal,> 100 µM
same,TGI,NCI-H23 lung,> 100 µM
Nc1nc2ccc(OCC(O)CN3CCCCC3)cc2[n+]([O-])n1 (stereo unspecified),TGI,COLO 205 colon,> 100 µM
same,TGI,SF-295 CNS,> 100 µM
same,TGI,U251 CNS,> 100 µM
same,TGI,SN12C renal,> 100 µM
same,TGI,786-0 renal,> 100 µM
same,TGI,K-562 leukemia,> 100 µM
same,TGI,NCI-H460 lung,> 100 µM
same,TGI,CAKI-1 renal,> 100 µM
same,TGI,NCI-H23 lung,> 100 µM
CN(C)C=NCCN1CCOCC1,TGI,COLO 205 colon,> 100 µM
same,TGI,SF-295 CNS,> 100 µM
same,TGI,U251 CNS,> 100 µM
same,TGI,SN12C renal,> 100 µM
same,TGI,IGROV1 ovarian,> 100 µM
same,TGI,786-0 renal,> 100 µM
same,TGI,K-562 leukemia,> 100 µM
same,TGI,UACC-62 melanoma,> 100 µM
same,TGI,NCI-H23 lung,> 100 µM
O=[N+]([O-])/C(C(Cl)=C(Cl)Cl)=C(\Nc1ccccc1)n1nnc2ccccc21,TGI,COLO 205 colon,> 100 µM
same,TGI,SF-295 CNS,> 100 µM
same,TGI,U251 CNS,> 100 µM
same,TGI,SN12C renal,> 100 µM
same,TGI,786-0 renal,> 100 µM
same,TGI,K-562 leukemia,> 100 µM
same,TGI,NCI-H460 lung,> 100 µM
same,TGI,UACC-62 melanoma,> 100 µM
same,TGI,CAKI-1 renal,> 100 µM
same,TGI,NCI-H23 lung,61.2 µM
